Results on 2 compounds are retold here after patent US4730063A, “Alkali metal 2,5-dihydro-3-ethoxycarbonyl-2-[(substituted phenyl)amino]-4-furanyloxides” (Pennwalt Corportion, priority 1986, dated 1988).

The structures appear in SMILES notation.

In this assay the test system is carrageenan-induced rat paw edema. As to the kind of experiment: carrageenan-induced rat paw edema assay. The format is in vivo. As to conditions: oral doses of 50 mg/kg.

The compound `CCOC(=O)C1=C(O)COC1=Nc1ccccc1` [Example 1, potassium 2,5-dihydro-3-ethoxycarbonyl-2-(phenylimino)-4-furanyloxide] had an inhibition of edema of 31%. For `CCOC(=O)C1=C(O)COC1=Nc1cccc([N+](=O)[O-])c1` [Example 4, potassium 2,5-dihydro-3-ethoxycarbonyl-2-[(3-nitrophenyl)imino]-4-furanyloxide], the inhibition of edema was 28.3%.
